ChEMBL document CHEMBL5113477, “Membrane acting Povarov-Doebner derived compounds potently disperse preformed multidrug resistant Gram-positive bacterial biofilms” (Eur J Med Chem, 2022)
≈ marks a conversion by molar mass, not a printed value. Calls of active or inactive are those of the source. The calls are words filed in the database; no cut-off is given here.

Key:
[1] = system: Enterococcus faecalis; assay: Antibiofilm activity against vancomycin-resistant Enterococcus faecalis ATCC 51575 in TSB broth assessed as dispersal of glucose-induced biofilm preincubated with glucose for 48 hrs followed by compound addition and measured after 24 hrs by crystal violet staining based analysis; format: functional
[2] = system: Staphylococcus aureus; assay: Antibacterial activity against methicillin-resistant Staphylococcus aureus ATCC 33592 assessed as reduction in visible bacterial growth incubated for 18 to 20 hrs by CLSI based broth microdilution analysis; format: functional; conditions: time 18-20 hrs
[3] = system: Enterococcus faecium; assay: (§1) Synergistic antibiofilm activity against vancomycin-resistant Enterococcus faecium ATCC 700221 in TSB broth assessed as dispersal of glucose-induced biofilm preincubated with glucose for 48 hrs followed by compound addition and further incubated for 24 hrs in presence of Bithionol by crystal violet staining based checkerboard assay; format: functional
[4] = system: Staphylococcus aureus; assay: Inhibition of DNA synthesis in Staphylococcus aureus ATCC 25923 at 0.25 to 8 ug/ml by [methyl]-thymidine incorporation assay; format: functional, organism-based; conditions: dose 0.25-8 µg/ml
[5] = system: Staphylococcus aureus; assay: Antibiofilm activity against methicillin-resistant Staphylococcus aureus ATCC 33592 in TSB broth assessed as dispersal of glucose-induced biofilm at 8 to 16 ug/ml preincubated with glucose for 48 hrs followed by compound addition and measured after 24 hrs by crystal violet staining based analysis; format: functional; conditions: dose 8-16 µg/ml, at 8 to 16 µg/mL
[6] = system: Staphylococcus aureus; assay: (§2) Synergistic antibiofilm activity against methicillin-resistant Staphylococcus aureus USA 300 in TSB broth assessed as dispersal of glucose-induced biofilm at 2 ug/ml preincubated with glucose for 48 hrs followed by compound addition and further incubated for 24 hrs in presence of 0.5 ug/ml Bithionol and AgNO3 by crystal violet staining based analysis; format: functional; conditions: dose 2 µg/ml
[7] = system: Staphylococcus aureus; assay: (§3) Synergistic antibiofilm activity against methicillin-resistant Staphylococcus aureus USA 300 in TSB broth assessed as dispersal of glucose-induced biofilm by measuring Bithionol MBEC preincubated with glucose for 48 hrs followed by compound addition and measured after 24 hrs by crystal violet staining based checkerboard assay; format: functional
[8] = system: Enterococcus faecium; assay: Antibiofilm activity against vancomycin-resistant Enterococcus faecium ATCC 700221 in TSB broth assessed as dispersal of glucose-induced biofilm at 8 to 16 ug/ml preincubated with glucose for 48 hrs followed by compound addition and measured after 24 hrs by crystal violet staining based analysis; format: functional; conditions: dose 8-16 µg/ml, at 8 to 16 µg/mL
[9] = system: Enterococcus faecium; assay: Antibacterial activity against vancomycin-resistant Enterococcus faecium ATCC 700221 assessed as reduction in visible bacterial growth incubated for 18 to 20 hrs by CLSI based broth microdilution analysis; format: functional; conditions: time 18-20 hrs
[10] = system: Staphylococcus aureus; assay: as §3, with “Nitroxoline” for “Bithionol”; format: functional
[11] = system: Enterococcus faecalis; assay: Antibacterial activity against vancomycin-resistant Enterococcus faecalis ATCC 51575 assessed as reduction in visible bacterial growth incubated for 18 to 20 hrs by CLSI based broth microdilution analysis; format: functional; conditions: time 18-20 hrs
[12] = system: Enterococcus faecalis; assay: Antibiofilm activity against vancomycin-resistant Enterococcus faecalis ATCC 51575 in TSB broth assessed as dispersal of glucose-induced biofilm at 8 to 16 ug/ml preincubated with glucose for 48 hrs followed by compound addition and measured after 24 hrs by crystal violet staining based analysis; format: functional; conditions: dose 8-16 µg/ml, at 8 to 16 µg/mL
[13] = system: Staphylococcus aureus; assay: Antibacterial activity against methicillin-resistant Staphylococcus aureus USA 300 (ARLG 1567) assessed as reduction in visible bacterial growth incubated for 18 to 20 hrs by CLSI based broth microdilution analysis; format: functional; conditions: time 18-20 hrs
[14] = system: Enterococcus faecalis; assay: (§4) Synergistic antibiofilm activity against vancomycin-resistant Enterococcus faecalis ATCC 51575 in TSB broth assessed as dispersal of glucose-induced biofilm by measuring fractional inhibitory concentration index preincubated with glucose for 48 hrs followed by compound addition and further incubated for 24 hrs in presence of Bithionol by crystal violet staining based checkerboard assay; format: functional
[15] = system: Staphylococcus aureus; assay: Inhibition of biofilm formation in methicillin-resistant Staphylococcus aureus ATCC 33592 in TSB broth at 0.0078 to 4 ug/ml incubated for 48 hrs in presence of glucose by crystal violet staining based analysis; format: functional, organism-based; conditions: dose 0.0078-4 µg/ml
[16] = system: Staphylococcus aureus; assay: Synergistic antibiofilm activity against methicillin-resistant Staphylococcus aureus USA 300 in TSB broth assessed as dispersal of glucose-induced biofilm preincubated with glucose for 48 hrs followed by compound addition and further incubated for 24 hrs in presence of Nitroxoline by crystal violet staining based checkerboard assay; format: functional
[17] = system: Cell membrane; assay: Induction of cell membrane disruption in Staphylococcus aureus ATCC 25923 assessed as appearance of hairy protrusions at 2 ug/ml incubated for 30 mins by SEM analysis; format: subcellular; conditions: dose 2.0 µg/ml
[18] = system: Enterococcus faecalis; assay: as §4, with “Bithionol MBEC” for “fractional inhibitory concentration index”, “measured after” for “further incubated for”, “hrs” for “hrs in presence of Bithionol”; format: functional
[19] = system: Enterococcus faecalis; assay: Inhibition of biofilm formation in vancomycin-resistant Enterococcus faecalis ATCC 51575 in TSB broth at 0.0078 to 4 ug/ml incubated for 48 hrs in presence of glucose by crystal violet staining based analysis; format: functional, organism-based; conditions: dose 0.0078-4 µg/ml
[20] = system: Enterococcus faecium; assay: Synergistic antibiofilm activity against vancomycin-resistant Enterococcus faecium ATCC 700221 in TSB broth assessed as dispersal of glucose-induced biofilm […] preincubated with glucose for 48 hrs followed by compound addition and measured after 24 hrs by crystal violet staining based checkerboard assay; format: functional
[21] = system: Staphylococcus aureus; assay: Antibacterial activity against methicillin-resistant Staphylococcus aureus USA 300 (ARLG 1665) assessed as reduction in visible bacterial growth incubated for 18 to 20 hrs by CLSI based broth microdilution analysis; format: functional; conditions: time 18-20 hrs
[22] = system: Enterococcus faecalis; assay: as §4, with “Nitroxoline” for “Bithionol”; format: functional
[23] = system: Staphylococcus aureus; assay: as §2, with “at 1” for “at 2”, “of Nitroxoline” for “of 0.5 ug/ml Bithionol and AgNO3”, “by SEM” for “by crystal violet staining based”; format: functional, organism-based; conditions: dose 1.0 µg/ml
[24] = system: Enterococcus faecalis; assay: as §1, with “faecalis” for “faecium”, “51575” for “700221”; format: functional
[25] = system: Staphylococcus aureus; assay: Antibacterial activity against methicillin-resistant Staphylococcus aureus USA 300 (ARLG 1570) assessed as reduction in visible bacterial growth incubated for 18 to 20 hrs by CLSI based broth microdilution analysis; format: functional; conditions: time 18-20 hrs
[26] = system: Staphylococcus aureus; assay: Antibacterial activity against methicillin-resistant Staphylococcus aureus USA 300 (ARLG 1561) assessed as reduction in visible bacterial growth incubated for 18 to 20 hrs by CLSI based broth microdilution analysis; format: functional; conditions: time 18-20 hrs
[27] = system: Staphylococcus aureus; assay: Antibacterial activity against methicillin-resistant Staphylococcus aureus USA 300 (ARLG 1569) assessed as reduction in visible bacterial growth incubated for 18 to 20 hrs by CLSI based broth microdilution analysis; format: functional; conditions: time 18-20 hrs
[28] = system: Staphylococcus aureus; assay: Antibiofilm activity against methicillin-resistant Staphylococcus aureus USA 300 in TSB broth assessed as dispersal of glucose-induced biofilm at 8 to 16 ug/ml preincubated with glucose for 48 hrs followed by compound addition and measured after 24 hrs by crystal violet staining based analysis; format: functional; conditions: dose 8-16 µg/ml, at 8 to 16 µg/mL
[29] = system: Enterococcus faecium; assay: Antibiofilm activity against vancomycin-resistant Enterococcus faecium ATCC 700221 in TSB broth assessed as dispersal of glucose-induced biofilm preincubated with glucose for 48 hrs followed by compound addition and measured after 24 hrs by crystal violet staining based analysis; format: functional
[30] = system: Enterococcus faecium; assay: Synergistic antibiofilm activity against vancomycin-resistant Enterococcus faecium ATCC 700221 in TSB broth assessed as dispersal of glucose-induced biofilm at 1 ug/ml preincubated with glucose for 48 hrs followed by compound addition and further incubated for 24 hrs in presence of 1 ug/ml Bithionol and AgNO3 by crystal violet staining based analysis; format: functional; conditions: dose 1 µg/ml

## Oc1ccc([C@@H]2Nc3ccc(S(F)(F)(F)(F)F)cc3[C@H]3[C@@H]4CC[C@@H](C4)[C@H]32)cc1
[1]
  MBEC: 16 µg/mL
[2]
  MBC: 1 µg/mL (≈ 2.4 µM)
  MIC: 2 µg/mL (≈ 4.79 µM)
[3]
  MBEC: 1 µg/mL
[4]
  inhibition: Active
[5]
  Activity: 70%
[6]
  Activity: >80%
[7]
  MBEC: 1 µg/mL
[8]
  Activity: 70%
[9]
  MBC: 2 µg/mL (≈ 4.79 µM)
  MIC: 2 µg/mL (≈ 4.79 µM)
[10]
  MBEC: 4 µg/mL
[11]
  MBC: 2 µg/mL (≈ 4.79 µM)
  MIC: 2 µg/mL (≈ 4.79 µM)
[12]
  Activity: 70%
[13]
  MBC: 2 µg/mL (≈ 4.79 µM)
  MIC: 2 µg/mL (≈ 4.79 µM)
[14]
  fractional inhibitory concentration index (FICI): 0.5
[15]
  inhibition: Active
[16]
  MBEC: 1 µg/mL
[17]
  Activity: Active
[18]
  MBEC: 4 µg/mL
[19]
  inhibition: Active
[20]
  MBEC: 2 µg/mL
[21]
  MBC: 2 µg/mL (≈ 4.79 µM)
  MIC: 1 µg/mL (≈ 2.4 µM)
[22]
  fractional inhibitory concentration index (FICI): 0.38
[23]
  Activity: Active
[24]
  MBEC: 2 µg/mL
[25]
  MBC: 2 µg/mL (≈ 4.79 µM)
  MIC: 1 µg/mL (≈ 2.4 µM)
[26]
  MBC: 2 µg/mL (≈ 4.79 µM)
  MIC: 2 µg/mL (≈ 4.79 µM)
[27]
  MBC: 2 µg/mL (≈ 4.79 µM)
  MIC: 1 µg/mL (≈ 2.4 µM)
[28]
  Activity: 70%
[29]
  MBEC: 32 µg/mL
[30]
  Activity: >70%
